Measured values reported in US20250302815A1, “PROTEIN TYROSINE PHOSPHATASE TARGETING LIGANDS” (CALICO LIFE SCIENCES LLC, priority 2021, published 2025).

Legend:
[1] = molecular target: T1, PTPN2 (HiBIT-PTPN2 in 293T.109 cells) (Homo sapiens, UniProt P17706); assay: HiBiT Degradation 293T.109 PTPN2 (Nano-Glo HiBiT Lytic Assay); assay type: cell-based; conditions: 24.0 hours
T1 construct: expressed in transfected cells; host or cells: 293T.109 (293T WT from ATCC)
T1 sequence (P17706 1-415): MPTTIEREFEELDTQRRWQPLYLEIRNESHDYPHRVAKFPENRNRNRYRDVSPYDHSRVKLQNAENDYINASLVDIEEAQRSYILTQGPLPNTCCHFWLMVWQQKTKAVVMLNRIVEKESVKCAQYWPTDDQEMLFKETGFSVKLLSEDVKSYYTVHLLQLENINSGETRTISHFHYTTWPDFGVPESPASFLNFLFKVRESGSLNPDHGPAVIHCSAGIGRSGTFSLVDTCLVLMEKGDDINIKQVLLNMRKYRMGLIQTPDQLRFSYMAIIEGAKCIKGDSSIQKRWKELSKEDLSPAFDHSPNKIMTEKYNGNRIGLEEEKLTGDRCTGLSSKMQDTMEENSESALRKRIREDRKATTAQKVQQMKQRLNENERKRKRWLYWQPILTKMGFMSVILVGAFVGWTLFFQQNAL
Procedure, shortened: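 293T.109 cells with ectopic N-terminal HiBiT-tagged PTPN2 (5000/well) exposed to compounds for 24 h at 37 °C, 5% CO2; 11-point half-log titration from 10 μM top, duplicates. Remaining HiBiT-PTPN2 read as luminescence with Nano-Glo HiBiT lytic reagent, normalised to untreated cells (0%) and reagent-free wells.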

PTPN2 (B16F10.4 cells) = molecular target: T2, PTPN2 (B16F10.4 cells) (Mus musculus, UniProt Q06180); assay: HiBiT Degradation B16F10.4 PTPN2; assay type: cell-based; conditions: 24.0 hours
T2 construct: HiBiT; host or cells: B16F10.4
T2 sequence (Q06180 1-406): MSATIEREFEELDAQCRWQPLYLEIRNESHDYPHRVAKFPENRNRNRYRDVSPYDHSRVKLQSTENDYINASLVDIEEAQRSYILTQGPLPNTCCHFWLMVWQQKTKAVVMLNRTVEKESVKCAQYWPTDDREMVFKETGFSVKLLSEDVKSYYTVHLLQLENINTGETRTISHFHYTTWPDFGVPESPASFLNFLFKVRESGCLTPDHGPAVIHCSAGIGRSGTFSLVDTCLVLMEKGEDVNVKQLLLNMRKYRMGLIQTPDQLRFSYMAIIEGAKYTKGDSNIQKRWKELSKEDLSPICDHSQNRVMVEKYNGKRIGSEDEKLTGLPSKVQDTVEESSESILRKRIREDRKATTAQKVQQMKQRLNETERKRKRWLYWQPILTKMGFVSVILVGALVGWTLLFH

Structure (SMILES)	DC50 [1]	DC50 (PTPN2 (B16F10.4 cells))
CC1(C)C[C@@H](Nc2cccc(-c3sc(C(=O)O)c(OCC(=O)O)c3Cl)c2)CCN1S(=O)(=O)Cc1cccc(NC(=O)COc2cccc3c2CN(C2CCC(=O)NC2=O)C3=O)c1 (stereo partly drawn) [Example 29, 3-(carboxymethoxy)-4-chloro-5-[3-[[(4S)-1-[[3-[[2-[2-(2,6-dioxo-3-piperidyl)-1-oxo-isoindolin-4-yl]oxyacetyl]amino]phenyl]methylsulfonyl]-2,2-dimethyl-4-piperidyl]amino]phenyl]thiophene-2-carboxylic acid]	200 to 1000 nM	200 to 1000 nM
CC1(C)C[C@@H](Nc2cccc(-c3sc(C(=O)O)c(OCC(=O)O)c3Cl)c2)CCN1S(=O)(=O)Cc1cccc(NC(=O)N2CCC[C@H](c3ccc4c5c(cccc35)N(C3CCC(=O)NC3=O)C4=O)CC2)c1 (stereo partly drawn) [Example 223, 3-(carboxymethoxy)-4-chloro-5-(3-(((4S)-1-((3-((4S)-4-(1-(2,6-dioxopiperidin-3-yl)-2-oxo-1,2-dihydrobenzo[cd]indol-5-yl)azepane-1-carboxamido)benzyl)sulfonyl)-2,2-dimethylpiperidin-4-yl)amino)phenyl)thiophene-2-carboxylic acid]	200 to 1000 nM	50 to 200 nM
Cn1c(=O)n(C2CCC(=O)NC2=O)c2ccc(C3CCN(C(=O)Nc4cccc(CS(=O)(=O)N5CC[C@@H](Nc6cc(-c7sc(C(=O)O)c(OCC(=O)O)c7Cl)ccc6F)CC5(C)C)c4)CC3)cc21 (stereo partly drawn) [Example 133]	200 to 1000 nM	50 to 200 nM
CC1(C)C[C@@H](Nc2cccc(-c3sc(C(=O)O)c(OCC(=O)O)c3Cl)c2)CCN1S(=O)(=O)Cc1cccc(NC(=O)COC2CN(C(=O)CNc3cccc4c3CN(C3CCC(=O)NC3=O)C4=O)C2)c1 (stereo partly drawn) [Example 92]	50 to 200 nM	200 to 1000 nM
CC1(C)C[C@H](Oc2cccc(-c3sc(C(=O)O)c(OCC(=O)O)c3Cl)c2)CCN1S(=O)(=O)Cc1cccc(NC(=O)N2CCC(c3ccc4c5c(cccc35)C(=O)N4C3CCC(=O)NC3=O)CC2)c1 (stereo partly drawn) [Example 227, 3-(carboxymethoxy)-4-chloro-5-(3-(((4R)-1-((3-(4-(1-(2,6-dioxopiperidin-3-yl)-2-oxo-1,2-dihydrobenzo[cd]indol-6-yl)piperidine-1-carboxamido)benzyl)sulfonyl)-2,2-dimethylpiperidin-4-yl)oxy)phenyl)thiophene-2-carboxylic acid]	200 to 1000 nM	50 to 200 nM
Cn1c(=O)n(C2CCC(=O)NC2=O)c2ccc([C@@H]3CCN(C(=O)Nc4cccc(CS(=O)(=O)N5CC[C@H](Nc6cccc(-c7sc(C(=O)O)c(OCC(=O)O)c7Cl)c6)CC5(C)C)c4)CC3(F)F)cc21 (stereo partly drawn) [Example 169, 3-(carboxymethoxy)-4-chloro-5-(3-(((4S)-1-((3-((4S)-4-(1-(2,6-dioxopiperidin-3-yl)-3-methyl-2-oxo-2,3-dihydro-1H-benzo[d]imidazol-5-yl)-3,3-difluoropiperidine-1-carboxamido)benzyl)sulfonyl)-2,2-dimethylpiperidin-4-yl)amino)phenyl)thiophene-2-carboxylic acid]	< 50 nM	< 50 nM

The remaining lines, values ahead:

DC50 [1]	DC50 (PTPN2 (B16F10.4 cells))	Structure (SMILES)
< 50 nM	200 to 1000 nM	CC1(C)C[C@@H](Nc2cccc(-c3sc(C(=O)O)c(OCC(=O)O)c3Cl)c2)CCN1S(=O)(=O)Cc1cccc(NC(=O)COC2CCN(C(=O)CNc3cccc4c3CN(C3CCC(=O)NC3=O)C4=O)CC2)c1 (stereo partly drawn) [Example 90]
< 50 nM	≥ 1000 nM	O=C(O)COc1c(C(=O)O)sc(-c2cccc(NC3CCN(S(=O)(=O)Cc4cccc(NC(=O)C5CN(C(=O)CNc6cccc7c6CN(C6CCC(=O)NC6=O)C7=O)C5)c4F)CC3)c2)c1Cl (stereo not drawn) [Example 75]
< 50 nM	50 to 200 nM	Cn1c(=O)n(C2CCC(=O)NC2=O)c2ccc(N3CCC(NCCNc4cccc(CS(=O)(=O)N5CC[C@H](Nc6cccc(-c7sc(C(=O)O)c(OCC(=O)O)c7Cl)c6)CC5(C)C)c4)CC3)cc21 (stereo partly drawn) [Example 197, 3-(carboxymethoxy)-4-chloro-5-[3-[[(4S)-1-[[3-[2-[[1-[1-(2,6-dioxo-3-piperidyl)-3-methyl-2-oxo-benzimidazol-5-yl]-4-piperidyl]amino]ethylamino]phenyl]methylsulfonyl]-2,2-dimethyl-4-piperidyl]amino]phenyl]thiophene-2-carboxylic acid]
